Results on three molecules are retold here after ChEMBL document CHEMBL1151387, “Constitutents of Magnolia Grandiflora. III. Toxic principle of the wood” (J Nat Prod, 1982).

Molecules are shown by their SMILES. Activity calls are given as the source filed them. No cut-off for these calls is given here.

A short description of data set [1]: Toxicity in iv dosed mouse. It is filed as organism-based. The settings on record: in vivo.
The nature of data set [2]: Toxicity in ip dosed mouse. It is filed as organism-based. The settings on record: in vivo.
The test system of data set [3] is Mus musculus. As to the kind of experiment: Effect on behavioral activity in ip dosed mouse assessed as occurrence of mydriasis for 30 mins. It is filed as functional, organism-based.
Data set [4] deals with Mus musculus. As to the kind of experiment: Toxicity in ip dosed mouse assessed as labored breathing and depression at LD50. It is filed as organism-based. The following applies: in vivo.
Data set [5] relates to Mus musculus. As to the kind of experiment: Toxicity in ip dosed mouse assessed as death at LD50. It is filed as organism-based. The settings on record: in vivo.

In the case of `COc1ccc2c(c1O)-c1c(OC)c(OC)cc3c1[C@H](C2)[N+](C)(C)CC3.[Cl-]`, the LD50 in data set [1] worked out at 2.2 mg/kg.
`COc1ccc2c(c1O)-c1c(OC)c(OC)cc3c1[C@H](C2)[N+](C)(C)CC3.[I-]` yielded an LD50 in data set [2] of 10 mg/kg.
Take `COc1ccc2c(c1O)-c1c(O)c(OC)cc3c1[C@H](C2)[N+](C)(C)CC3` [MAGNOFLORINE]: the LD50 in data set [2] came out at 19.6 mg/kg. Further, in the data set with Mus musculus [3], the result was Active. Besides, the Activity is given as 5 min in the data set on Mus musculus [4] and 15 min with Mus musculus [5].

Broadly, the LD50 is the dose at which mortality reaches 50%. Higher therefore signals a less toxic substance.
